Measurements as given in US11279735B2, “Cyclic peptide antibiotics” (priority 2017, dated 2022).
Values after ≈ are worked out from the molar mass of the structure shown. *1 amine or outer side, *2 acyl side, *3 side chain or, on linkers, in order; H or OH if unused. Where a SMILES comes first, the peptide text is derived from it. [ ]: non-standard residue; d: D form. The star is where a group is joined. X13 = C[C@H](CO[C@H](CC1CC2(CCC2)C1)[C@@H](C)C(=O)[*:2])N[*:1]; X19 = CCCC[C@@H](OC[C@@H](C)N[*:1])[C@@H](CC1CC1)C(=O)[*:2]; X2 = CCCCCC[C@@H](OC[C@@H](C)N[*:1])[C@@H](C)C(=O)[*:2]; Cyclobutyl(trans-3-NH2) = N[C@H]1C[C@H](*)C1; aThr = C[C@H](O)[C@H](N)C(=O)O; NMeL = CN[C@@H](CC(C)C)C(=O)O; Chg = N[C@H](C(=O)O)C1CCCCC1; NMeNva = CCC[C@H](NC)C(=O)O; Dap = NC[C@H](N)C(=O)O; X7 = NCC(O)C*

These molecules were tested on Escherichia coli (E. coli) strain CFT073 ATCC 700928. Details: ATCC 700928, 22 h.
Format: cell-based
Method in brief: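 Broth microdilution MIC per CLSI M07-A8 in cation-adjusted Mueller Hinton II broth with 0.002% Tween-80. Ten-point 2-fold series topped at 64, 4, 0.5 or 0.13 μg/mL depending on protocol. Final inoculum OD600 0.0005, incubated 22 h at 35 °C.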
`CCCCCCCCCC[C@H]1OC(=O)CNC(=O)[C@H](CCO)NC(=O)[C@H](CO)NC(=O)[C@H]([C@@H](C)CC)NC(=O)[C@H](CC(C)C)N(C)C(=O)[C@@H]1C` [Example 27, (6S,9S,12S,15S,18R,19R)-19-decyl-6-(2-hydroxyethyl)-9-(hydroxymethyl)-15-isobutyl-16,18-dimethyl-12-[(1S)-1-methylpropyl]-1-oxa-4,7,10,13,16-pentazacyclononadecane-2,5,8,11,14,17-hexone] was tested, and the MIC was 13 µM (≈ 9.26 µg/mL).
`CCCCCC[C@H]1OC(=O)CNC(=O)[C@H](COCCCN)NC(=O)[C@H](CN)NC(=O)[C@H](C2CCCCC2)NC(=O)[C@H](CC(C)C)N(C)C(=O)[C@@H]1C` [Example 51, (6S,9S,12S,15S,18R,19R)-9-(Aminomethyl)-6-((3-aminopropoxy)methyl)-12-cyclohexyl-19-hexyl-15-isobutyl-16,18-dimethyl-1-oxa-4,7,10,13,16-pentaazacyclononadecane-2,5,8,11,14,17-hexaone] gave an MIC of 8.7 µM (≈ 6.3 µg/mL).
`CCCCCC[C@H]1OC[C@@H](C)NC(=O)[C@H]([C@H](C)O)NC(=O)[C@H](CN)NC(=O)[C@H](C2CCCCC2)NC(=O)[C@H](CCC)N(C)C(=O)[C@@H]1C` [Example 127, (3R,6S,9S,12S,15S,18R,19R)-9-(aminomethyl)-12-cyclohexyl-19-hexyl-3,16,18-trimethyl-15-propyl-6-[(1S)-1-hydroxyethyl]-1-oxa-4,7,10,13,16-pentazacyclononadecane-5,8,11,14,17-pentone] (cyclo([Chg][Dap][aThr][X2][NMeNva])) gave an MIC of 4.4 µM (≈ 2.93 µg/mL).
`CCCCCCCCCC[C@H]1OC(=O)CNC(=O)[C@H](CCN)NC(=O)[C@H](CO)NC(=O)[C@H]([C@@H](C)CC)NC(=O)[C@H](CC(C)C)N(C)C(=O)[C@@H]1C` [Example 20, (6S,9S,12S,15S,18R,19R)-6-(2-aminoethyl)-19-decyl-9-(hydroxymethyl)-15-isobutyl-16,18-dimethyl-12-[(1S)-1-methylpropyl]-1-oxa-4,7,10,13,16-pentazacyclononadecane-2,5,8,11,14,17-hexone] showed an MIC of 50 µM (≈ 35.5 µg/mL).
In the case of `CCCCCC[C@H]1OC[C@@H](C)NC(=O)[C@H](COC)NC(=O)[C@H](CN)NC(=O)[C@H](C2CCCCC2)NC(=O)[C@H](CC(C)C)N(C)C(=O)[C@@H]1C` [Example 128, (3R,6S,9S,12S,15S,18R,19R)-9-(aminomethyl)-12-cyclohexyl-19-hexyl-15-isobutyl-6-(methoxymethyl)-3,16,18-trimethyl-1-oxa-4,7,10,13,16-pentazacyclononadecane-5,8,11,14,17-pentone] (cyclo([Chg][Dap]S(Me)[X2][NMeL])), the MIC was 3.1 µM (≈ 2.11 µg/mL).
Molecule `CCCCCCCCCC[C@H]1OC(=O)CNC(=O)[C@H]([C@H](C)O)NC(=O)[C@H](CN)NC(=O)[C@H](CCCCOC)NC(=O)[C@H](CC(C)C)N(C)C(=O)[C@@H]1C` [Example 50, (6S,9S,12S,15S,18R,19R)-9-(aminomethyl)-19-decyl-6-[(1S)-1-hydroxyethyl]-15-isobutyl-12-(4-methoxybutyl)-16,18-dimethyl-1-oxa-4,7,10,13,16-pentazacyclononadecane-2,5,8,11,14,17-hexone] has an MIC of 25 µM (≈ 18.5 µg/mL).
`CCC[C@H]1C(=O)N[C@@H](C2CCCCCC2)C(=O)N[C@@H](CN)C(=O)N[C@@H]([C@H](C)O)C(=O)NCC(=O)O[C@H](CC2CC3CCC2C3)[C@@H](C)C(=O)N1C` (stereo partly drawn) [Example 134, (6S,9S,12S,15S,18R,19R)-9-(aminomethyl)-12-cycloheptyl-16,18-dimethyl-19-(norbornan-2-ylmethyl)-15-propyl-6-[(1S)-1-hydroxyethyl]-1-oxa-4,7,10,13,16-pentazacyclononadecane-2,5,8,11,14,17-hexone] gave an MIC of 0.78 µM (≈ 0.55 µg/mL).
Molecule `CCCCCC[C@H]1OC(=O)CNC(=O)[C@H]([C@H](C)O)NC(=O)[C@H](CN)NC(=O)[C@H](C2CCCCC2)NC(=O)[C@H](CC(C)C)N(C)C(=O)[C@@H]1Cc1ccc(C(F)(F)F)cc1` [Example 121, (6S,9S,12S,15S,18R,19R)-9-(aminomethyl)-12-cyclohexyl-19-hexyl-15-isobutyl-16-methyl-6-[(1S)-1-hydroxyethyl]-18-[[4-(trifluoromethyl)phenyl]methyl]-1-oxa-4,7,10,13,16-pentazacyclononadecane-2,5,8,11,14,17-hexone] has an MIC of 6.3 µM (≈ 5.2 µg/mL).
In the case of `CCCCCCCCCC[C@H]1OC(=O)CNC(=O)[C@H]([C@H](C)O)NC(=O)[C@H](CN)NC(=O)[C@H]([C@@H](C)CC)NC(=O)[C@H](CC(C)C)N(C)C(=O)[C@@H]1C` [Example 23, (6S,9S,12S,15S,18R,19R)-9-(aminomethyl)-19-decyl-6-[(1S)-1-hydroxyethyl]-15-isobutyl-16,18-dimethyl-12-[(1S)-1-methylpropyl]-1-oxa-4,7,10,13,16-pentazacyclononadecane-2,5,8,11,14,17-hexone], the MIC was 3.1 µM (≈ 2.2 µg/mL).
With `CCCC[C@H]1OC[C@@H](C)NC(=O)[C@H]([C@H](C)O)NC(=O)[C@H](CN)NC(=O)[C@H](C2CCCCC2)NC(=O)[C@H](CCC)N(C)C(=O)[C@@H]1CC1CC1` [Example 147, (3R,6S,9S,12S,15S,18R,19R)-9-(Aminomethyl)-19-butyl-12-cyclohexyl-18-(cyclopropylmethyl)-6-((S)-1-hydroxyethyl)-3,16-dimethyl-15-propyl-1-oxa-4,7,10,13,16-pentaazacyclononadecane-5,8,11,14,17-pentaone] (cyclo([Chg][Dap][aThr][X19][NMeNva])) the MIC was 12 µM (≈ 8.15 µg/mL).
For `CCC[C@H]1C(=O)N[C@@H](C2CCCCC2)C(=O)N[C@@H](CN)C(=O)N[C@@H](CO[C@H]2C[C@H](N)C2)C(=O)N[C@H](C)CO[C@H](CC2CC3(CCC3)C2)[C@@H](C)C(=O)N1C` [Example 172, (3R,6S,9S,12S,15S,18R,19R)-6-(((1r,3S)-3-Aminocyclobutoxy)methyl)-9-(aminomethyl)-12-cyclohexyl-3,16,18-trimethyl-15-propyl-19-(spiro[3.3]heptan-2-ylmethyl)-1-oxa-4,7,10,13,16-pentaazacyclononadecane-5,8,11,14,17-pentaone] (cyclo([Chg][Dap]S(Cyclobutyl(trans-3-NH2))[X13][NMeNva])), the MIC was 4.4 µM (≈ 3.28 µg/mL).
Molecule `CCCCCC[C@H]1OC[C@@H](C)NC(=O)[C@H](COCC(O)CN)NC(=O)[C@H](CN)NC(=O)[C@H](C2CCCCC2)NC(=O)[C@H](CC(C)C)N(C)C(=O)[C@@H]1C` (stereo partly drawn) [Example 173, (3R,6S,9S,12S,15S,18R,19R)-6-((3-Amino-2-hydroxypropoxy)methyl)-9-(aminomethyl)-12-cyclohexyl-19-hexyl-15-isobutyl-3,16,18-trimethyl-1-oxa-4,7,10,13,16-pentaazacyclononadecane-5,8,11,14,17-pentaone] (cyclo([Chg][Dap]S(X7)[X2][NMeL])) has an MIC of 12 µM (≈ 8.88 µg/mL).
In the case of `CCCCCCCCCC[C@H]1OC(=O)CNC(=O)[C@H]([C@H](C)O)NC(=O)[C@H](CO)NC(=O)[C@H]([C@@H](C)CC)NC(=O)[C@H](CC(C)C)N(C)C(=O)[C@@H]1C` [Example 22, (6S,9S,12S,15S,18R,19R)-19-decyl-6-[(1S)-1-hydroxyethyl]-9-(hydroxymethyl)-15-isobutyl-16,18-dimethyl-12-[(1S)-1-methylpropyl]-1-oxa-4,7,10,13,16-pentazacyclononadecane-2,5,8,11,14,17-hexone], the MIC was 13 µM (≈ 9.26 µg/mL).
Work on `CCCCCC[C@H]1OC(=O)CNC(=O)[C@H](CNC(C)=O)NC(=O)[C@H](CN)NC(=O)[C@H](C2CCCCC2)NC(=O)[C@H](CC(C)C)N(C)C(=O)[C@@H]1C` [Example 124, N-[[(6S,9S,12S,15S,18R,19R)-9-(aminomethyl)-12-cyclohexyl-19-hexyl-15-isobutyl-16,18-dimethyl-2,5,8,11,14,17-hexaoxo-1-oxa-4,7,10,13,16-pentazacyclononadec-6-yl]methyl]acetamide] yielded an MIC of 18 µM (≈ 12.7 µg/mL).
For `CCC[C@H]1C(=O)N[C@@H](C2CCCCCC2)C(=O)N[C@@H](CN)C(=O)N[C@@H](COC2CC3(CC(N)C3)C2)C(=O)N[C@H](C)CO[C@H](CC2CC3(CCC3)C2)[C@@H](C)C(=O)N1C` (single isomer, unassigned; stereoisomer 1) [Example 166], the MIC was 1.1 µM (≈ 0.88 µg/mL).
`CCCCCC[C@H]1OC(=O)CNC(=O)[C@H]([C@H](C)O)NC(=O)[C@H](CO)NC(=O)[C@H]([C@H](C)CC)NC(=O)[C@H](CC(C)C)N(C)C(=O)[C@@H]1CCCc1ccc(C)cc1` [Example 9, (6S,9S,12S,15S,18R,19R)-12-((R)-sec-butyl)-19-hexyl-6-((S)-1-hydroxyethyl)-9-(hydroxymethyl)-15-isobutyl-16-methyl-18-(3-(p-tolyl)propyl)-1-oxa-4,7,10,13,16-pentaazacyclononadecane-2,5,8,11,14,17-hexaone] was tested, and the MIC was 6.3 µM (≈ 4.88 µg/mL).
`CCCCCC[C@H]1OC(=O)CNC(=O)[C@H](CO[C@H]2C[C@H](N)C2)NC(=O)[C@H](CN)NC(=O)[C@H](C2CCCCC2)NC(=O)[C@H](CC(C)C)N(C)C(=O)[C@@H]1C` [Example 58, (6S,9S,12S,15S,18R,19R)-6-(((1r,3S)-3-Aminocyclobutoxy)methyl)-9-(aminomethyl)-12-cyclohexyl-19-hexyl-15-isobutyl-16,18-dimethyl-1-oxa-4,7,10,13,16-pentaazacyclononadecane-2,5,8,11,14,17-hexaone] was tested, and the MIC was 6.3 µM (≈ 4.64 µg/mL).

Same assay, conditions: E. coli CFT073 ATCC 700928; Mueller Hinton II cation adjusted Broth with 0.002% v/v Tween-80; 35° C. for 22 hours; lowest concentration that completely prevented bacterial growth
`C=CCCCC[C@H]1OC(=O)CNC(=O)[C@H]([C@H](C)O)NC(=O)[C@H](CN)NC(=O)[C@H](C2CCCCC2)NC(=O)[C@H](CC(C)C)N(C)C(=O)[C@@H]1C` [Example 105, (6S,9S,12S,15S,18R,19R)-9-(aminomethyl)-12-cyclohexyl-19-hex-5-enyl-15-isobutyl-16,18-dimethyl-6-[(1S)-1-hydroxyethyl]-1-oxa-4,7,10,13,16-pentazacyclononadecane-2,5,8,11,14,17-hexone] gave an MIC of 5.2 µM (≈ 3.53 µg/mL).
